Results reported in ChEMBL document CHEMBL3352542, “Synthesis, biological evaluation and molecular modeling study of 2-(1,3,4-thiadiazolyl-thio and 4-methyl-thiazolyl-thio)-quinazolin-4-ones as a new class of DHFR inhibitors” (Bioorg Med Chem Lett, 2014).
Active and inactive are the calls of the source.

What was measured:
Dihydrofolate reductase = molecular target: T1, Dihydrofolate reductase (Bos taurus, UniProt P00376); assay: Inhibition of bovine liver DHFR
T1 sequence (P00376 whole entry): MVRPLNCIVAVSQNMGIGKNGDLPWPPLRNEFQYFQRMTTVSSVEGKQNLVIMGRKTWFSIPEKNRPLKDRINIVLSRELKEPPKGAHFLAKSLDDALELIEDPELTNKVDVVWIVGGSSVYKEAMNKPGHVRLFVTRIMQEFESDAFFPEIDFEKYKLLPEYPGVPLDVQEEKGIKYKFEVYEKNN

Staphylococcus aureus = assay: Antimicrobial activity against Staphylococcus aureus assessed as inhibition zone at 200 ug/disk after 24 hrs by disc-diffusion method; type: functional; conditions: read-out: IZ
Bacillus subtilis = assay: Antimicrobial activity against Bacillus subtilis assessed as inhibition zone at 200 ug/disk after 24 hrs by disc-diffusion method; type: functional; conditions: read-out: IZ
Escherichia coli = assay: Antimicrobial activity against Escherichia coli assessed as inhibition zone at 200 ug/disk after 24 hrs by disc-diffusion method; type: functional; conditions: read-out: IZ
Pseudomonas aeruginosa = assay: Antimicrobial activity against Pseudomonas aeruginosa assessed as inhibition zone at 200 ug/disk after 24 hrs by disc-diffusion method; type: functional; conditions: read-out: IZ
Candida albicans = assay: Antimicrobial activity against Candida albicans assessed as inhibition zone at 200 ug/disk after 24 hrs by disc-diffusion method; type: functional; conditions: read-out: IZ
CCRF-CEM = assay: Growth inhibition of human CCRF-CEM cells at 10 uM after 48 hrs; type: functional
HL-60(TB) = assay: Growth inhibition of human HL-60(TB) cells at 10 uM after 48 hrs; type: functional
K562 = assay: Growth inhibition of human K562 cells at 10 uM after 48 hrs; type: functional
MOLT-4 = assay: Growth inhibition of human MOLT4 cells at 10 uM after 48 hrs; type: functional
RPMI-8226 = assay: Growth inhibition of human RPMI8226 cells at 10 uM after 48 hrs; type: functional
SR = assay: Growth inhibition of human SR cells at 10 uM after 48 hrs; type: functional
A549 = assay: Growth inhibition of human A549 cells at 10 uM after 48 hrs; type: functional
HOP-92 = assay: Growth inhibition of human HOP92 cells at 10 uM after 48 hrs; type: functional
NCI-H226 = assay: Growth inhibition of human NCI-H226 cells at 10 uM after 48 hrs; type: functional
NCI-H522 = assay: Growth inhibition of human NCI-H522 cells at 10 uM after 48 hrs; type: functional
HCT-116 = assay: Growth inhibition of human HCT116 cells at 10 uM after 48 hrs; type: functional
HCT-15 = assay: Growth inhibition of human HCT15 cells at 10 uM after 48 hrs; type: functional
HT-29 = assay: Growth inhibition of human HT-29 cells at 10 uM after 48 hrs; type: functional
KM12 = assay: Growth inhibition of human KM12 cells at 10 uM after 48 hrs; type: functional
SF-295 = assay: Growth inhibition of human SF295 cells at 10 uM after 48 hrs; type: functional
SF-539 = assay: Growth inhibition of human SF539 cells at 10 uM after 48 hrs; type: functional
SNB-19 = assay: Growth inhibition of human SNB19 cells at 10 uM after 48 hrs; type: functional
U-251 = assay: Growth inhibition of human U251 cells at 10 uM after 48 hrs; type: functional
Malme-3M = assay: Growth inhibition of human MALME-3M cells at 10 uM after 48 hrs; type: functional
MDA-MB-435 = assay: Growth inhibition of human MDA-MB-435 cells at 10 uM after 48 hrs; type: functional
SK-MEL-5 = assay: Growth inhibition of human SK-MEL-5 cells at 10 uM after 48 hrs; type: functional
UACC-257 = assay: Growth inhibition of human UACC257 cells at 10 uM after 48 hrs; type: functional
UACC-62 = assay: Growth inhibition of human UACC62 cells at 10 uM after 48 hrs; type: functional
OVCAR-4 = assay: Growth inhibition of human OVCAR4 cells at 10 uM after 48 hrs; type: functional
786-0 = assay: Growth inhibition of human 786-0 cells at 10 uM after 48 hrs; type: functional
A498 = assay: Growth inhibition of human A498 cells at 10 uM after 48 hrs; type: functional
CAKI-1 = assay: Growth inhibition of human CAKI-1 cells at 10 uM after 48 hrs; type: functional
RXF 393 = assay: Growth inhibition of human RXF393 cells at 10 uM after 48 hrs; type: functional
UO-31 = assay: Growth inhibition of human UO31 cells at 10 uM after 48 hrs; type: functional
PC-3 = assay: Growth inhibition of human PC3 cells at 10 uM after 48 hrs; type: functional
MCF7 = assay: Growth inhibition of human MCF7 cells at 10 uM after 48 hrs; type: functional
MDA-MB-231 = assay: Growth inhibition of human MDA-MB-231 cells at 10 uM after 48 hrs; type: functional
Hs-578T = assay: Growth inhibition of human Hs 578T cells at 10 uM after 48 hrs; type: functional
T47D = assay: Growth inhibition of human T47D cells at 10 uM after 48 hrs; type: functional
MDA-MB-468 = assay: Growth inhibition of human MDA-MB-468 cells at 10 uM after 48 hrs; type: functional
HOP-62 = assay: Growth inhibition of human HOP62 cells at 10 uM after 48 hrs; type: functional
SK-MEL-28 = assay: Growth inhibition of human SK-MEL-28 cells at 10 uM after 48 hrs; type: functional, cell-based

Cc1ccc2nc(Sc3nnc(N)s3)n(-c3ccccc3)c(=O)c2c1
8 mm: zone of inhibition at 200 µg/disc (Staphylococcus aureus) | zone of inhibition at 200 µg/disc (Bacillus subtilis) | zone of inhibition at 200 µg/disc (Escherichia coli) | zone of inhibition at 200 µg/disc (Pseudomonas aeruginosa) | zone of inhibition at 200 µg/disc (Candida albicans)
inactive: growth inhibition (GI) (CCRF-CEM) | growth inhibition (GI) (HL-60(TB)) | growth inhibition (GI) (K562) | growth inhibition (GI) (MOLT-4) | growth inhibition (GI) (RPMI-8226) | growth inhibition (GI) (SR) | growth inhibition (GI) (A549) | growth inhibition (GI) (HOP-92) | growth inhibition (GI) (NCI-H226) | growth inhibition (GI) (NCI-H522) | growth inhibition (GI) (HCT-116) | growth inhibition (GI) (HCT-15) | growth inhibition (GI) (HT-29) | growth inhibition (GI) (KM12) | growth inhibition (GI) (SF-295) | growth inhibition (GI) (SF-539) | growth inhibition (GI) (SNB-19) | growth inhibition (GI) (U-251) | growth inhibition (GI) (Malme-3M) | growth inhibition (GI) (MDA-MB-435) | growth inhibition (GI) (SK-MEL-5) | growth inhibition (GI) (UACC-257) | growth inhibition (GI) (UACC-62) | growth inhibition (GI) (OVCAR-4) | growth inhibition (GI) (786-0) | growth inhibition (GI) (A498) | growth inhibition (GI) (CAKI-1) | growth inhibition (GI) (RXF 393) | growth inhibition (GI) (UO-31) | growth inhibition (GI) (PC-3) | growth inhibition (GI) (MCF7) | growth inhibition (GI) (MDA-MB-231) | growth inhibition (GI) (Hs-578T) | growth inhibition (GI) (T47D) | growth inhibition (GI) (MDA-MB-468) | growth inhibition (GI) (HOP-62) | growth inhibition (GI) (SK-MEL-28)
7 µM: IC50 (Dihydrofolate reductase)

COc1cc2nc(Sc3nnc(N)s3)n(-c3ccc(C)cc3)c(=O)c2cc1OC
8 mm: zone of inhibition at 200 µg/disc (Escherichia coli) | zone of inhibition at 200 µg/disc (Pseudomonas aeruginosa) | zone of inhibition at 200 µg/disc (Candida albicans)
14 mm: zone of inhibition at 200 µg/disc (Staphylococcus aureus)
inactive: growth inhibition (GI) (CCRF-CEM) | growth inhibition (GI) (HL-60(TB)) | growth inhibition (GI) (K562) | growth inhibition (GI) (MOLT-4) | growth inhibition (GI) (RPMI-8226) | growth inhibition (GI) (SR) | growth inhibition (GI) (A549) | growth inhibition (GI) (HOP-92) | growth inhibition (GI) (NCI-H226) | growth inhibition (GI) (NCI-H522) | growth inhibition (GI) (HCT-116) | growth inhibition (GI) (HCT-15) | growth inhibition (GI) (HT-29) | growth inhibition (GI) (KM12) | growth inhibition (GI) (SF-295) | growth inhibition (GI) (SF-539) | growth inhibition (GI) (SNB-19) | growth inhibition (GI) (U-251) | growth inhibition (GI) (Malme-3M) | growth inhibition (GI) (MDA-MB-435) | growth inhibition (GI) (SK-MEL-5) | growth inhibition (GI) (UACC-257) | growth inhibition (GI) (UACC-62) | growth inhibition (GI) (OVCAR-4) | growth inhibition (GI) (786-0) | growth inhibition (GI) (A498) | growth inhibition (GI) (CAKI-1) | growth inhibition (GI) (RXF 393) | growth inhibition (GI) (UO-31) | growth inhibition (GI) (PC-3) | growth inhibition (GI) (MCF7) | growth inhibition (GI) (MDA-MB-231) | growth inhibition (GI) (Hs-578T) | growth inhibition (GI) (T47D) | growth inhibition (GI) (MDA-MB-468) | growth inhibition (GI) (HOP-62) | growth inhibition (GI) (SK-MEL-28)
1 µM: IC50 (Dihydrofolate reductase)
15 mm: zone of inhibition at 200 µg/disc (Bacillus subtilis)

COc1ccc(-n2c(Sc3nnc(N)s3)nc3ccc(C)cc3c2=O)cc1
3 µM: IC50 (Dihydrofolate reductase)
inactive: growth inhibition (GI) (CCRF-CEM) | growth inhibition (GI) (HL-60(TB)) | growth inhibition (GI) (K562) | growth inhibition (GI) (MOLT-4) | growth inhibition (GI) (RPMI-8226) | growth inhibition (GI) (SR) | growth inhibition (GI) (A549) | growth inhibition (GI) (HOP-92) | growth inhibition (GI) (NCI-H226) | growth inhibition (GI) (NCI-H522) | growth inhibition (GI) (HCT-116) | growth inhibition (GI) (HCT-15) | growth inhibition (GI) (HT-29) | growth inhibition (GI) (KM12) | growth inhibition (GI) (SF-295) | growth inhibition (GI) (SF-539) | growth inhibition (GI) (SNB-19) | growth inhibition (GI) (U-251) | growth inhibition (GI) (Malme-3M) | growth inhibition (GI) (MDA-MB-435) | growth inhibition (GI) (SK-MEL-5) | growth inhibition (GI) (UACC-257) | growth inhibition (GI) (UACC-62) | growth inhibition (GI) (OVCAR-4) | growth inhibition (GI) (786-0) | growth inhibition (GI) (A498) | growth inhibition (GI) (CAKI-1) | growth inhibition (GI) (RXF 393) | growth inhibition (GI) (UO-31) | growth inhibition (GI) (PC-3) | growth inhibition (GI) (MCF7) | growth inhibition (GI) (MDA-MB-231) | growth inhibition (GI) (Hs-578T) | growth inhibition (GI) (T47D) | growth inhibition (GI) (MDA-MB-468) | growth inhibition (GI) (HOP-62) | growth inhibition (GI) (SK-MEL-28)
8 mm: zone of inhibition at 200 µg/disc (Staphylococcus aureus) | zone of inhibition at 200 µg/disc (Bacillus subtilis) | zone of inhibition at 200 µg/disc (Escherichia coli) | zone of inhibition at 200 µg/disc (Pseudomonas aeruginosa) | zone of inhibition at 200 µg/disc (Candida albicans)
